Laboratory results: paper PMC8209157, “Identification of a dual orange/far-red and blue light photoreceptor from an oceanic green picoplankton” (Nature Communications, 2021)

Key:
[1] = target: T1, PpPHY (PHY region of PpDUC1) (Pycnococcus provasolii, UniProt A0A830HT85); assay: UV-Vis photoconversion spectra, acid-urea denaturation and in-gel fluorescence of purified holoprotein; type: binding; conditions: covalent; GAF Cys; chromophore co-produced in E. coli (pKT271); HEPES pH 7.5, room temperature
T1 construct: gene PPROV_000692100; source genome assembly GCA_015473125.1
T1 sequence (A0A830HT85 1-662): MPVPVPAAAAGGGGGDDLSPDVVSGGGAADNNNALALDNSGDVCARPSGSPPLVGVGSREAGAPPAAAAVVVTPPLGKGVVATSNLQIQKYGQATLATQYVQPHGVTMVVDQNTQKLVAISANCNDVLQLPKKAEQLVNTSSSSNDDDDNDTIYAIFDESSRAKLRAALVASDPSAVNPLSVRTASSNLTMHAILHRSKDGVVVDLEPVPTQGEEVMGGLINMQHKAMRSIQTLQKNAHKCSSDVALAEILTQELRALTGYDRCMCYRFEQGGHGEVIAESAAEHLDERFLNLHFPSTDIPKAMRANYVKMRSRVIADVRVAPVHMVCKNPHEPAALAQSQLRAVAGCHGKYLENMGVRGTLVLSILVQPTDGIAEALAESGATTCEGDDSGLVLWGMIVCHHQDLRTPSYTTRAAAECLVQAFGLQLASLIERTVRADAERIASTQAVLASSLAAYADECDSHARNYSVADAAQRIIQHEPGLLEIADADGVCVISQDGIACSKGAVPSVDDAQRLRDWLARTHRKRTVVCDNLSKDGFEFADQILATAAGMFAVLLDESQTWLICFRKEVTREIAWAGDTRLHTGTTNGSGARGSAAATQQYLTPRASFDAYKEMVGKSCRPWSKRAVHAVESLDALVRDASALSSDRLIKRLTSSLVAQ

[2] = target: T1, PpPHY (PHY region of PpDUC1); assay: UV-Vis photoconversion spectra of purified holoprotein; type: binding; conditions: chromophore co-produced in E. coli (pKT272); HEPES pH 7.5, room temperature

UV-Vis photoconversion spectra, acid-urea denaturation and in-gel fluorescence o [1] | Compound | UV-Vis photoconversion spectra of purified holoprotein [2]
The purified PpPHY covalently bound PCB | CC=C1C(=Cc2[nH]c(C=C3N=C(C=C4NC(=O)C(CC)=C4C)C(C)=C3CCC(=O)O)c(CCC(=O)O)c2C)NC(=O)C1C (centres unmarked) [PCB, phycocyanobilin] | –
– | C=CC1=C(C)C(=CC2=NC(=Cc3[nH]c(C=C4NC(=O)C(C)C4=CC)c(C)c3CCC(=O)O)C(CCC(=O)O)=C2C)NC1=O (centres unmarked) [PΦB, phytochromobilin] | PΦB but not BV could be efficiently incorporated into the apo-PpPHY
